# Source: US20230414622A1, “PHARMACEUTICAL METHOTREXATE COMPOSITION” (Leopold MTX GmbH, priority 2020, published 2023)
# Where two headings read alike, the source gives them in different places.
# T1: Recombinant CD20 (Acrobiosystems), Cy5-labelled (UniProt P11836 1-297, limits assumed, labelled with fluorescent dye Cy5 (site not stated))
# T1 construct: Bought recombinant protein; construct not described; also called B-lymphocyte antigen CD20
# T1 sequence (looked up): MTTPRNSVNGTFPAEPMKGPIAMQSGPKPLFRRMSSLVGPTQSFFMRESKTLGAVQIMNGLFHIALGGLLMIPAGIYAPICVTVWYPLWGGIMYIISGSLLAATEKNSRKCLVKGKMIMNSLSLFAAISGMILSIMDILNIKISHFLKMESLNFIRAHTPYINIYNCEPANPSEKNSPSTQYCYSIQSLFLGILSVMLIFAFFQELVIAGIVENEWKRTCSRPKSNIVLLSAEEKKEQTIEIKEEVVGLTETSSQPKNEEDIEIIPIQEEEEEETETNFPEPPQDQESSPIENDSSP
# Experiments:
# TNF-α = molecular target: T2, TNF-α (Homo sapiens, UniProt P01375); assay: Microscale thermophoresis (MST) binding affinity to Cy5-labelled recombinant TNF-α; conditions: for Kd: PBS pH 7.5, 25° C., mean of six independent test series
# T2 construct: purchased Acrobiosystems, USA
# Description: (§1) In addition to thermodynamic stability, the binding affinity of the biopharmaceuticals in compositions according to the present invention was determined and compared with the binding affinity in corresponding reference compositions.
# (§2) Binding studies were performed using microscale thermophoresis (MST) with the Monolith NT.115 device (NanoTemper Technologies, Munich, Germany).
# (§3) For the MST measurements, 10 microliters each of the biopharmaceutical at a concentration of […] were mixed with 10 microliters each of a serial dilution of methotrexate disodium in PBS buffer pH 7.5 to prepare the compositions according to the invention. The final concentration of MTX in all samples was 55 micromoles per liter, while the concentration of the respective ligand ranged from 1.5 micromoles per liter to 25 millimoles per liter.
# (§4) Samples were loaded into coated capillaries (NanoTemper Technologies) according to the manufacturer's instructions and fluorescence was recorded for 20 seconds at 100% laser power and 40% MST power. The temperature of the instrument was set at 25° C. for all measurements. After the recordal of MST time traces, the data were analyzed. The equilibrium dissociation constant (KD) was determined based on the change in normalized fluorescence as a function of the concentration of the corresponding ligand after 14 seconds of thermophoresis using MO affinity analysis software (NanoTemper Technologies).
# (§5) The values shown are the arithmetic mean values from six independent test series in each case.
# [1] = Thermal unfolding profiles (Tycho NT.6 fluorimeter): temperature stability of the biologic with or without MTX; format: physicochemical
# Source text: To prepare the compositions according to the invention, the biologics were combined with methotrexate disodium at concentrations of 25 milligrams per milliliter, 16.6 milligrams per milliliter, 10.0 milligrams per milliliter, 7.14 milligrams per milliliter, and 5.0 milligrams per milliliter, respectively. Phosphate buffered saline (PBS buffer) pH 7.5 was used as the solvent. As reference composition in each case served the biopharmaceutical in equivalent concentration in PBS buffer pH 7.5 without the addition of methotrexate disodium.
# In each case, the above-noted concentrations were the final concentration of the biopharmaceutical or the methotrexate in the pharmaceutical composition.
# After 20 days of incubation, the compositions were measured using a Tycho NT.6 fluorimeter (NanoTemper Technologies, Munich, Germany) according to the manufacturer's instructions to determine the thermal unfolding profiles of the biologics.
# The inflection point of each curve indicates the denaturation temperature of the biopharmaceutical in the composition.
# CD80 = assay: Microscale thermophoresis (MST) binding affinity to Cy5-labelled recombinant CD80; conditions: for Kd: PBS pH 7.5, 25° C., mean of six independent test series
# Description: as §1, §2
# Recombinant TNF-α, CD20, and CD80 (Acrobiosystems, USA) were labeled for MST measurements using the fluorescent dye Cy5 (Thermo Fisher Scientific, Germany) according to the manufacturer's instructions. The concentration of the recombinant proteins was measured after labeling using a UV-Vis spectrophotometer, and a labeling efficiency of 80 was determined.
# as §3, §4, §5
# [2] = molecular target: T1, Recombinant CD20 (Acrobiosystems), …; assay: microscale thermophoresis; KD with MTX against the reference without MTX
# [3] = molecular target: T1, Recombinant CD20 (Acrobiosystems), …; assay: microscale thermophoresis, Cy5-labelled CD20, PBS pH 7.5, 25 °C, reference without MTX; mean of six series
# [4] = molecular target: T1, Recombinant CD20 (Acrobiosystems), …; assay: microscale thermophoresis, Cy5-labelled CD20, PBS pH 7.5, 25 °C, with methotrexate disodium; mean of six series
# [5] = MTX 55 micromoles per liter, read-out: KD with MTX
# [6] = read-out: KD without MTX (reference)
# Sequence of CD80 (P33681 35-288): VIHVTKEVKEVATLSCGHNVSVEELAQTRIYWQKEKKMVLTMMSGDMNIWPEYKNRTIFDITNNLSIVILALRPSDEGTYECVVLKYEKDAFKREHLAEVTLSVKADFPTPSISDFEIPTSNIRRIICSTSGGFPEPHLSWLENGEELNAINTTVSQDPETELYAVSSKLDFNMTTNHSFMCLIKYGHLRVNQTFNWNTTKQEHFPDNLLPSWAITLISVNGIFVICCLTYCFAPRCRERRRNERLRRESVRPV
# T2 sequence (P01375 77-233 limits assumed): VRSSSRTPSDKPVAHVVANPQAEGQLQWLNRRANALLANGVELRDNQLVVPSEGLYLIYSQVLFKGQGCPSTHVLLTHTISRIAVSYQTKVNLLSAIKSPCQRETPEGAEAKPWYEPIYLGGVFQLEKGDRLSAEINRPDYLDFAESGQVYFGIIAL
molecule,measurement,setting,value
Adalimumab,Kd,TNF-α; [5],0.14 nM
same,Kd,TNF-α; [6],0.147 nM
same,binding affinity / binding strength in composition with MTX compared to control without MTX,"TNF-α; in words, the b130 statement covers all tested ligands (TNF-α, CD20, CD80)",higher binding affinity
same,Relative increase in binding strength,TNF-α; with MTX vs without MTX,5%
Etanercept,Kd,TNF-α; [5],0.005 nM
same,Kd,TNF-α; [6],0.0116 nM
same,temperature stability in composition with MTX,"[1]; MTX 5 milligrams per milliliter, PBS pH 7.5, 20 days of incubation",74.3 °C
same,denaturation temperature / temperature stability in reference composition without MTX,"[1]; PBS buffer pH 7.5, without MTX, after 20 days of incubation",73.9 °C
"Rituximab: biologic that specifically binds B-lymphocyte antigen CD20 (trade names: MabThera, Rituxan)",Kd,CD80; [5],6.8 nM
same,Kd,CD80; [6],11.3 nM
same,Relative increase in binding strength,CD80; with MTX vs without MTX,66%
"Rituximab (MabThera) (antibody, V domains shown) VH: QVQLQQPGAELVKPGASVKMSCKASGYTFTSYNMHWVKQTPGRGLEWIGAIYPGNGDTSYNQKFKGKATLTADKSSSTAYMQLSSLTSEDSAVYYCARSTYYGGDWYFNVWGAGTTVTVSA VL: QIVLSQSPAILSASPGEKVTMTCRASSSVSYIHWFQQKPGSSPKPWIYATSNLASGVPVRFSGSGSGTSYSLTISRVEAEDAATYYCQQWTSNPPTFGGGTKLEIK",Relative increase in binding strength,[2],66%
same,Kd,[3],11.3 nM
same,Kd,[4],6.8 nM
